This is an account of results in patent US11352330B2, “Phenoxymethyl derivatives” (Hoffmann-La Roche Inc., priority 2015, dated 2022).

The target in the experiment is human ATX (Homo sapiens (Human), UniProt Q13822). In words: Human ATX enzyme inhibition assay (fluorescence quenching, MR121 substrate). To be noted: human His-tagged ATX 30 nM, MR121 substrate 1 μM, 30° C. In kind it is biochemical. The method, then: Human ATX Enzyme Inhibition Assay
ATX inhibition was measured by a fluorescence quenching assay using a specifically labeled substrate analogue (MR121 substrate). To obtain this MR121 substrate, BOC and TBS protected 6-amino-hexanoic acid (R)-3-({2-[3-(2-{2-[2-(2-amino-ethoxy)-ethoxy]-ethoxy}-ethoxy)-propionylamino]-ethoxy}-hydroxy-phosphoryloxy)-2-hydroxy-propyl ester (Ferguson et al., Org Lett 2006, 8 (10), 2023) was labeled with MR121 fluorophore (CAS 185308-24-1, 1-(3-carboxypropyl)-11-ethyl-1,2,3,4,8,9,10,11-octahydro-dipyrido[3,2-b:2′,3′-i]phenoxazin-13-ium) on the free amine of the ethanolamine side and then, after deprotection, subsequently with tryptophan on the side of the aminohexanoic acid.
Assay working solutions were made as follows:
Assay buffer (50 mM Tris-HCl, 140 mM NaCl, 5 mM KCl, 1 mM CaCl2, 1 mM MgCl2, 0.01% Triton-X-100, pH 8.0;
ATX solution: ATX (human His-tagged) stock solution (1.08 mg/mL in 20 mM bicine, pH 8.5, 0.15 M NaCl, 10% glycerol, 0.3% CHAPS, 0.02% NaN3), diluted to 1.4-2.5× final concentration in assay buffer;
MR121 substrate solution: MR121 substrate stock solution (800 μM MR121 substrate in DMSO), diluted to 2-5× final concentration in assay buffer.
Test compounds (10 mM stock in DMSO, 8 μL) were obtained in 384 well sample plates (Corning Costar #3655) and diluted with 8 μL DMSO. Row-wise serial dilutions were made by transferring 8 μL cpd solution to the next row up to row O. The compound and control solutions were mixed five times and 2 μL were transferred to 384 well assay plates (Corning Costar #3702). Then, 15 μL of 41.7 nM ATX solution was added (30 nM final concentration), mixed five times and then incubated for 15 minutes at 30° C. 10 μL of MR121 substrate solution was added (1 μM final concentration), mixed 30 times and then incubated for 15 minutes at 30° C.

`Cc1cc(OCc2n[nH]c(=O)n2C)c(C(C)(C)C)cc1Cl` [Example A1, 3-[(2-tert-Butyl-4-chloro-5-methylphenoxy)methyl]-4-methyl-1H-1,2,4-triazol-5-one] returned an IC50 of 2 nM. This counts as single-digit nanomolar.

With `Cn1c(COc2cc(F)c(Cl)cc2C(C)(C)C)n[nH]c1=O` [Example A2], the IC50 turned out to be 10 nM.

`CC(C)c1cc2c(cc1OCc1n[nH]c(=O)n1C)C(C)(C)CC2` [Example A3] had an IC50 of 25 nM.

Turning to `Cc1noc(-c2ccc(OCc3n[nH]c(=O)n3C)c(C(C)(C)C)c2)n1` [Example A4], the 50% inhibitory concentration (IC50) amounted to 59 nM.

For `Cn1ccnc1-c1ccc(OCc2n[nH]c(=O)n2C)c(C(C)(C)C)c1` [Example A6], inhibition was half-maximal at 523 nM (IC50).

`Cn1c(COc2ccc(-c3ncco3)cc2C(C)(C)C)n[nH]c1=O` [Example A7] came in with an IC50 of 13 nM.

Take `Cn1c(COc2ccc(N3CCOCC3)cc2C(C)(C)C)n[nH]c1=O` [Example A8]: the IC50 worked out at 1600 nM.

With `Cn1cncc1-c1ccc(OCc2n[nH]c(=O)n2C)c(C(C)(C)C)c1` [Example A9], 2610 nM corresponded to half-maximal inhibition (IC50).

For `Cc1nnc(-c2ccc(OCc3n[nH]c(=O)n3C)c(C(C)(C)C)c2)o1` [Example A10], the IC50 worked out at 104 nM.

Take `CC(C)c1cc(C#N)ccc1OCc1n[nH]c(=O)n1C` [Example A11]: the IC50 stood at 15 nM.

`Cc1cc(OCc2n[nH]c(=O)n2C)c(C(C)C)cc1C#N` [Example A12] gave an IC50 of 1 nM.

Turning to `Cn1c(COc2cc(S(C)(=O)=O)c(Cl)cc2C2CC2)n[nH]c1=O` [Example A14], the IC50 was determined as 1890 nM. Compared with the last compound, the IC50 is about 1900-fold higher.

The compound `Cn1c(COc2ccc(S(C)(=O)=O)cc2C(C)(C)C)n[nH]c1=O` [Example A15] returned a half-maximal inhibitory concentration (IC50) of 230 nM.

Compound `Cc1cc(OCc2n[nH]c(=O)n2C)c(C(C)(C)C)cc1C#N` [Example A16] returned an IC50 of 5 nM.

`Cc1cc(C(C)(C)C)c(OCc2n[nH]c(=O)n2C)cc1C#N` [Example A17]: half-maximal inhibition (IC50) was put at 35 nM. Compared with the last compound, the IC50 is about 7-fold higher.

`Cc1cc(OCc2n[nH]c(=O)n2C)c(C2CC2)cc1Cl` [Example A19] had an IC50 of 15 nM.

Consider `Cc1cc(OCc2n[nH]c(=O)n2C)c(C2CCCCC2)cc1Cl` [Example A20], for which the concentration for half-maximal inhibition (IC50) was 8 nM.

Compound `Cc1cc(OCc2n[nH]c(=O)n2C)c(C2CCOCC2)cc1Cl` [Example A21] came in with an IC50 of 62 nM. Compared with the last compound, the IC50 is about 7.8-fold higher.

For the compound `Cn1c(COc2cc(C#N)c(Cl)cc2C2CC2)n[nH]c1=O` [Example A22], half-maximal inhibition (IC50) required 173 nM.

Compound `Cn1c(COc2cc(NS(C)(=O)=O)c(Cl)cc2C2CC2)n[nH]c1=O` [Example A23] had an IC50 of over 27000 nM.

On to `Cn1c(COc2cc(C#N)ccc2C(C)(C)C)n[nH]c1=O` [Example A24], for which the IC50 worked out at 91 nM.

`Cn1c(COc2cc(C(N)=O)ccc2C(C)(C)C)n[nH]c1=O` [Example A25]: the IC50 stood at 958 nM.

The compound `Cc1cc(OCc2n[nH]c(=O)n2C(C)C)c(C(C)(C)C)cc1C#N` [Example A26, 5-tert-Butyl-2-methyl-4-[(5-oxo-4-propan-2-yl-1H-1,2,4-triazol-3-yl)methoxy]benzonitrile] came in with an IC50 of 12 nM. This IC50 lies about 80-fold lower than the previous one.

In turn, `Cc1ccc(C(C)C)c(OCc2n[nH]c(=O)n2C)c1` [Example A27, 4-Methyl-3-[(5-methyl-2-propan-2-ylphenoxy)methyl]-1H-1,2,4-triazol-5-one] yielded a half-maximal inhibitory concentration (IC50) of 19 nM. Against the preceding compound, the IC50 is about 1.6-fold higher.

On to `Cc1cc(OCc2n[nH]c(=O)n2C)c(C(C)C)cc1Cl` [Example A28], for which 5 nM corresponded to half-maximal inhibition (IC50).

The compound `CC(C)c1cc(Cl)ccc1OCc1n[nH]c(=O)n1C` [Example A29] registered a concentration for half-maximal inhibition (IC50) of 50 nM.

Compound `Cc1nc2cc(OCc3n[nH]c(=O)n3C)c(C3CC3)cc2s1` [Example A30] registered a concentration for half-maximal inhibition (IC50) of 9 nM.

`Cc1cc(OCc2n[nH]c(=O)n2C)c(C2CCC2)cc1Cl` [Example A31] registered an IC50 of 19 nM.

Compound `Cn1c(COc2ccc(-c3ncc[nH]3)cc2C(C)(C)C)n[nH]c1=O` [Example A32, 3-[[2-tert-butyl-4-(1H-imidazol-2-yl)phenoxy]methyl]-4-methyl-1H-1,2,4-triazol-5-one] registered an IC50 of 3770 nM.

Compound `Cn1c(COc2cc(C#N)c(Cl)cc2C(C)(C)C)n[nH]c1=O` [Example A34, 4-tert-Butyl-2-chloro-5-[(4-methyl-5-oxo-1H-1,2,4-triazol-3-yl)methoxy]benzonitrile] showed an IC50 of 28 nM. Compared with the last compound, the IC50 is about 130-fold lower.

In the case of `Cc1cc(OCc2n[nH]c(=O)n2C)c(-c2ccccc2)cc1Cl` [Example B1, 3-[(4-Chloro-5-methyl-2-phenylphenoxy)methyl]-4-methyl-1H-1,2,4-triazol-5-one], half-maximal inhibition (IC50) was put at 3 nM.

In turn, `Cc1cc(OCc2n[nH]c(=O)n2C)c(-c2ccccc2Cl)cc1Cl` [Example B2] yielded an IC50 of 1 nM.

`Cc1cc(OCc2n[nH]c(=O)n2C)c(-c2cccc(Cl)c2)cc1Cl` [Example B3] had an IC50 of 1 nM. This lies in the single-digit nanomolar range.

For the compound `Cc1cc(OCc2n[nH]c(=O)n2C)c(-c2ccc(Cl)cc2)cc1Cl` [Example B4], 6 nM corresponded to half-maximal inhibition (IC50). Against the preceding compound, the IC50 is about 6-fold higher.

With `Cc1cc(OCc2n[nH]c(=O)n2C)c(-c2cccc(C#N)c2)cc1Cl` [Example B5], half-maximal inhibition (IC50) was put at 3 nM. This IC50 lies about 2-fold lower than the previous one.

On to `Cc1cc(OCc2n[nH]c(=O)n2C)c(-c2cccc(S(C)(=O)=O)c2)cc1Cl` [Example B6], for which half-maximal inhibition (IC50) required 8 nM.

`Cc1cc(OCc2n[nH]c(=O)n2C)c(-c2ccccc2S(C)(=O)=O)cc1Cl` [Example B7] gave an IC50 of 4200 nM.

`Cc1cc(OCc2n[nH]c(=O)n2C)c(-c2cccc(C(=O)N3CCCCC3)c2)cc1Cl` [Example B8] returned an IC50 of 10 nM.

`Cc1cc(OCc2n[nH]c(=O)n2C)c(-c2cccc(C(=O)NC3CCCCC3)c2)cc1Cl` [Example B9] registered an IC50 of 12 nM.

`Cc1cc(OCc2n[nH]c(=O)n2C)c(-c2cccc(C(=O)N3CCOCC3)c2)cc1Cl` [Example B10] gave an IC50 of 23 nM.

With `Cc1cc(OCc2n[nH]c(=O)n2C)c(-c2cccc(C(N)=O)c2)cc1Cl` [Example B11], the IC50 worked out at 166 nM.

Turning to `Cc1cc(OCc2n[nH]c(=O)n2C)c(-c2cccc(C(=O)N(C)C)c2)cc1Cl` [Example B12], it took 22 nM to reach half-maximal inhibition (IC50).

`Cc1cc(OCc2n[nH]c(=O)n2C)c(-c2cccc(C(=O)Nc3ccccc3)c2)cc1Cl` [Example B13] had an IC50 of 6 nM.

`Cc1cc(OCc2n[nH]c(=O)n2C)c(-c2cc(Cl)cc(C(N)=O)c2)cc1Cl` [Example B14] gave an IC50 of 79 nM.

Turning to `Cc1cc(OCc2n[nH]c(=O)n2C)c(-c2cc(C(=O)NC3CC3)ccc2F)cc1Cl` [Example B15], the IC50 came to 11 nM.

Compound `Cn1c(COc2ccc(C#N)cc2-c2ccccc2)n[nH]c1=O` [Example B16] displayed an IC50 of 25 nM.

`COCCNC(=O)c1cccc(-c2cc(Cl)c(C)cc2OCc2n[nH]c(=O)n2C)c1` [Example B17] showed an IC50 of 16 nM.

The compound `Cc1cc(OCc2n[nH]c(=O)n2C)c(-c2cccnc2Cl)cc1Cl` [Example B18] showed an IC50 of 52 nM.

The compound `Cc1cc(OCc2n[nH]c(=O)n2C)c(-c2cccc(Cl)n2)cc1Cl` [Example B19] gave an IC50 of 65 nM.

The compound `Cc1cc(OCc2n[nH]c(=O)n2C)c(-c2cncc(C(N)=O)c2)cc1Cl` [Example B20] had an IC50 of 913 nM.

Consider `COc1cccc(-c2cc(Cl)c(C)cc2OCc2n[nH]c(=O)n2C)n1` [Example B21], for which it took 104 nM to reach half-maximal inhibition (IC50).

Compound `Cc1cc(OCc2n[nH]c(=O)n2C)c(-c2cnccn2)cc1Cl` [Example B22, 3-[(4-Chloro-5-methyl-2-pyrazin-2-ylphenoxy)methyl]-4-methyl-1H-1,2,4-triazol-5-one] returned an IC50 of 227 nM.

The compound `Cc1cc(OCc2n[nH]c(=O)n2C)c(-c2ncccn2)cc1Cl` [Example B23, 3-[(4-Chloro-5-methyl-2-pyrimidin-2-yl-phenoxy)methyl]-4-methyl-1H-1,2,4-triazol-5-one] had an IC50 of 212 nM. This IC50 and that of the compound before are within 1.5-fold of each other.

In the case of `Cc1cc(OCc2n[nH]c(=O)n2C)c(-c2cc(C(F)(F)F)nn2C)cc1Cl` [Example B24, 3-[[4-Chloro-5-methyl-2-[2-methyl-5-(trifluoromethyl)pyrazol-3-yl]phenoxy]methyl]4-methyl-1H-1,2,4-triazol-5-one], half-maximal inhibition (IC50) was put at 126 nM.

Take `Cc1cc(OCc2n[nH]c(=O)n2C)c(-c2ccno2)cc1Cl` [Example B25]: inhibition was half-maximal at 20 nM (IC50).

As for `Cc1cc(OCc2n[nH]c(=O)n2C)c(-c2cnco2)cc1Cl` [Example B26], the midpoint of inhibition, the IC50, lay at 495 nM.

Turning to `Cc1cc(OCc2n[nH]c(=O)n2C)c(-c2cncn2C)cc1Cl` [Example B27, 3-[[4-Chloro-5-methyl-2-(3-methylimidazol-4-yl)phenoxy]methyl]-4-methyl-1H-1,2,4-triazol-5-one], the IC50 was found to be 3720 nM.

`Cc1cc(OCc2n[nH]c(=O)n2C)c(-c2cnc[nH]2)cc1Cl` [Example B28, 3-[[4-Chloro-2-(1H-imidazol-5-yl)-5-methylphenoxy]methyl]-4-methyl-1H-1,2,4-triazol-5-one] showed an IC50 of 5940 nM.
